Data: patent publication US20160022751A1, “NOVEL COMPOSITION FOR TREATING ALZHEIMER'S DISEASE AND IMPROVING COGNITIVE FUNCTION OF ALZHEIMER'S PATIENTS” (GANGNEUNG-WONJU NATIONAL UNIVERSITY INDUSTRY ACADEMY …, priority 2014, published 2016)

Columns and labels:
caveolin1 = experiment: Caveolin1 immunocytochemistry in HMO6 cells; format: cell-based, human; conditions: Rg3 5 μg/ml, 24 h, immunocytochemistry (FIG. 20)
Experimental: FIG. 20 is a fluorescence microscopic image showing a result of immunocytochemical analysis investigating the expression of caveolin and clathrin in HMO6 cells treated with or without Rg3. HMO6 cells were treated with Rg3 (5 μg/ml) for 24 h after plated on chamber slides and then the cells were stained with primary antibodies binding specifically to caveolin and clathrin, respectively and counterstained with DAPI. The length of scale bar represents 10 μm.
The present inventors investigated whether ginsenosides can induce the expression of SRA, clathrin, caveolin 1, NEP or IDE and the differentiation of neurons actually through immunocytochemical analysis (ICC) and microscopic observations. Specifically, Cultured HMO6 cells were fixed in 4% paraformaldehyde (in 1×PBS) for 15 min, washed twice with 1×PBS supplemented with 100 mM glycine for 5 min, and incubated with permeabilization buffer consisting of 0.1% Triton X-100 (Sigma-Aldrich, USA) in 1×PBS for 30 min at room temperature. Blocking was performed with 1% bovine serum albumin (BSA, Sigma-Aldrich, USA) for 30 min at room temperature. Then, SRA, clathrin, caveolin1, NEP, or IDE mouse monoclonal antibody (1:200; Santa Cruz Biotechnology, USA) was added to 1% BSA in PBS with Tween 20 (PBST) and incubated for 2 h at room temperature. […]

IDE = IDE mRNA expression in HMO6 human microglial cells (qPCR); format: cell-based
Experimental: HMO6 human microglial cell line was kindly provided by Dr. SU Kim (Chung-Ang University, Korea). HMO6 cells were grown in Dulbecco's Modified Eagle's Medium (DMEM) (Hyclone, USA) supplemented with 10% fetal bovine serum, 100 U/ml penicillin, and 100 μg/ml streptomycin (Invitrogen, USA). Cultures were maintained under 5% CO2 at 37° C. in tissue culture flasks. Cells were grown to >90% confluency and subjected to no more than 20 cell passages. Medium was changed every 2-3 days. Subconfluent cells were harvested and seeded at a density of 5×10^5 cells or 5×10^6 cells in poly-L-lysine-coated 35-mm or 60-mm culture plates. After 24 h of plating, the medium was replaced with serum-free DMEM, washed once with phosphate buffered saline (PBS), and treated with Rg3 or Aβ42.
Total RNA extracts from HMO6 cells or perfused brain tissue were prepared using the Trizol method (Invitrogen). cDNA was synthesized from RNA by reverse transcription of 1 μg total RNA using the Improm-II reverse transcription system (Promega, Wis., USA) and oligo dT primers in a total volume of 20 μl. PCR amplification was performed using the primers listed in Table 1 (Bioneer, Korea). qPCR reactions were run on a Rotor-Gene 6000 (Corbett Research, Sydney, Australia) using a SensiMix™ SYBR Hi-ROX Kit (Bioline, UK) in 20 μl reaction mixtures. Each real-time-PCR master mix contained 10 μl 2× enzyme master mix, 7 μl RNase free water, 1 μl of each primer (10 pM each), and 1 μl diluted template. The PCR was performed with an initial pre-incubation step for 15 min at 95° C., followed by 45 cycles of 95° C. for 15 s, annealing at 52° C. for 15 s, and extension at 72° C. for 10 s. […] Relative sample expression levels were calculated using Rotor-Gene 6000 Series Software 1.7 and were expressed relative to β-actin for mice or glyceraldehyde 3-phosphate dehydrogenase for HMO6 cells and corrected for between-run variability. Data for the experimental samples are expressed as a percentage of the internal control gene. […]

[1] = Rg3-treated HMO6 cells (FIG. 14)

CC(C)=CCC[C@](C)(O)[C@H]1CC[C@]2(C)[C@@H]1[C@H](O)C[C@@H]1[C@@]3(C)CC[C@H](O[C@@H]4O[C@H](CO)[C@@H](O)[C@H](O)[C@H]4O[C@@H]4O[C@H](CO)[C@@H](O)[C@H](O)[C@H]4O)C(C)(C)[C@@H]3CC[C@]12C [ginsenoside Rg3]
caveolin1 expression (caveolin1): highly expressed
IDE mRNA (IDE; HMO6 cells, Aβ42 (5 μM) and/or Rg3 (2.5 or 5 μg/ml), 24 h (FIG. 15E)): increased significantly
IDE expression versus untreated control group (IDE; [1]): about six-fold higher
IDE mRNA expression (IDE; [1]): dose-dependently increased
